In patent US11717517B2, “LSD dose identification” (Universitätsspital Basel, priority 2020, dated 2023):
Where two headings read alike, the source gives them in different places.

Experiments:
[1] = tested on: healthy subjects; assay: Subjective drug effects (VAS, 5D-ASC, MEQ, AMRS), double-blind placebo-controlled cross-over study
Protocol: (§1) Study design: The study used a double-blind, placebo-controlled, cross-over design with six experimental test sessions to investigate the responses to 1) placebo 2) 25 μg, 3) 50 μg, 4) 100 μg, 5) 200 μg LSD, and 6) 200 μg LSD after ketanserin (40 mg). The washout periods between sessions were at least 10 days. The study was registered at ClinicalTrials.gov (NCT03321136).
Participants: Sixteen healthy subjects (eight men and eight women; mean age±SD: 29±6.4 years; range: 25-52 years). Participants who were younger than 25 years old were excluded from participating in the study. Additional exclusion criteria were age >65 years, pregnancy (urine pregnancy test at screening and before each test session), personal or family (first-degree relative) history of major psychiatric disorders (assessed by the Semi-structured Clinical Interview for Diagnostic and Statistical Manual of Mental Disorders, 4th edition, Axis I disorders by a trained psychiatrist), the use of medications that can interfere with the study medications (e.g. antidepressants, antipsychotics, sedatives), chronic or acute physical illness (abnormal physical exam, electrocardiogram, or hematological and chemical blood analyses), tobacco smoking (>10 cigarettes/day), lifetime prevalence of illicit drug use >10 times (except for Δ^9-tetrahydrocannabinol), illicit drug use within the last 2 months, and illicit drug use during the study (determined by urine drug tests).
Thus, subjects ingested 2 mL of LSD solution and/or placebo (96% ethanol) per session: 1) placebo/placebo, 2) 25 μg LSD/placebo, 3) 25 μg LSD/25 μg LSD, 4) 100 μg LSD/placebo, 5) 100 μg LSD/100 μg LSD, 6. 100 μg LSD/100 μg LSD). Ketanserin was obtained as the marketed drug (KETENSIN®, Janssen) and encapsulated with opaque capsules to ensure blinding. Placebo consisted of identical opaque capsules filled with mannitol. Thus, blinding to treatment was guaranteed by using a double-dummy method, with identical capsules and vials that were filled with mannitol and ethanol, respectively, as placebo. At the end of each session and at the end of the study, the participants were asked to retrospectively guess their treatment assignment.
(§2) Study procedures: The study included a screening, six 25 hour test sessions, and an end-of-study visit. The sessions were conducted in a calm standard hospital room. Only one research subject and one investigator were present during the test sessions. The test sessions began at 7:45 AM. The subjects then underwent baseline measurements. Ketanserin (40 mg) or placebo was administered at 8:00 AM. LSD or placebo was administered at 9:00 AM. The outcome measures were repeatedly assessed for 24 hours. A standardized lunch and dinner were served at 1:30 PM and 6:00 PM, respectively. The subjects were under constant supervision by an investigator until 1:00 AM. Thus, the subjects were never alone during the first 16 hours after drug administration, and the investigator was in a room next to the subject for up to 24 hours. The subjects were sent home the next day at 9:15 AM.
Subjective drug effects: Subjective effects were assessed repeatedly using visual analog scales (VASs) 1 hour before and 0, 0.5, 1, 1.5, 2, 2.5, 3, 4, 5, 6, 7, 8, 9, 10, 11, 12, 14, 16, and 24 hours after LSD administration. […] The VASs were presented as 100-mm horizontal lines (0-100%), marked from “not at all” on the left to “extremely” on the right. The VASs for “concentration”, and “perception of time” were bidirectional (±50%). Marked from “not at all” on the left (−50), to “normal” in the middle (0), to “extremely” on the right (+50) for concentration and “slowed” (−50) and “racing” (+50) for “perception of time”.

[2] = Stability of oral LSD solution (isomerization to iso-LSD); format: physicochemical
Protocol: Each dose of LSD was formulated as a solution to be administered orally in 1 ml of 96% ethanol according to GMP (batch BZ17-2; 25 μg and 100 μg vials) and stored free in argon-prefilled vials in the dark at 4° C. The exact analytically confirmed LSD contents (mean±SD) of the 25 μg and 100 μg formulation were […], respectively, after production. Stability of the formulation for longer than the study period was documented in an identically produced previous batch (batch BZ16). […] Vials that were stored at room temperature had higher iso-LSD contents of 0%, 3.1%, 3.4%, 6.7%, and 9.5% after 2, 4, 6, 12 and 24 months, respectively. The 100 μg LSD dose of that was used in the present study would correspond to a dose of approximately 125 μg of LSD tartrate including crystal water, which is the form of LSD that is more likely to be used when acquired illegally (i.e., in blotter form) for recreational use or was used in other recent studies (Bershad et al., 2019; Yanakieva et al., 2019).

[3] = after 200 μg dose as two 100 μg capsules; Steuer et al., 2017; cited from earlier work
[4] = tested on: brain-derived neurotrophic factor (BDNF)
Protocol: Plasma BDNF levels were measured at baseline and 6, 12, and 24 hours after drug administration using the Biosensis Mature BDNF Rapid ELISA Kit (Thebarton, Australia) (Akimoto et al., 2019).

[5] = tested on: healthy humans; conditions: cited from earlier work
[6] = Plasma exposure to LSD and iso-LSD after LSD capsules in previous studies; conditions: assuming similar bioavailability
[7] = tested on: healthy subjects; assay: Autonomic and adverse effects (blood pressure, heart rate, body temperature, List of Complaints)
Protocol: as §1, §2
Autonomic, adverse, and endocrine effects: Blood pressure, heart rate, and tympanic body temperature were repeatedly measured 1 hour before and 0, 0.5, 1, 1.5, 2.5, 3, 4, 5, 6, 7, 8, 9, 10, 11, 12, 14, 16, and 24 hours after drug administration as previously described in detail (Hysek et al., 2010). […] This scale yields a total adverse effects score and reliably measures physical and general discomfort.
Data analysis: Peak (Emax and/or Emin) or peak change from baseline (ΔEmax) values were determined for repeated measures. The values were then analyzed using repeated-measures analysis of variance (ANOVA), with drug as within-subjects factor, followed by Tukey post hoc comparisons using Statistica 12 software (StatSoft, Tulsa, Okla., USA). The criterion for significance was p<0.05.

[8] = Plasma drug concentrations and pharmacokinetic-pharmacodynamic modeling; format: in vivo, human
Protocol: Plasma drug concentrations: Blood was collected into lithium heparin tubes 1 hour before and 0, 0.5, 1, 2, 3, 4, 6, 8, 10, 12, 14, 16, and 24 hours after LSD administration. The blood samples were immediately centrifuged, and the plasma was subsequently stored at −80° C. until analysis. Plasma concentrations of LSD and O-H-LSD were determined using a validated ultra-high-performance liquid chromatography tandem mass spectrometry method as described previously in detail (Holze et al., 2019).
Pharmacokinetic analyses and pharmacokinetic-pharmacodynamic modeling: Pharmacokinetic parameters were estimated using a one-compartment model with first-order input, first-order elimination, and no lag time in Phoenix WinNonlin 6.4 (Certara, Princeton, N.J., USA) as described previously in detail (Holze et al., 2019).

In the case of O=C(c1ccc(F)cc1)C1CCN(CCn2c(=O)[nH]c3ccccc3c2=O)CC1 [Ketanserin], the “effect of ketanserin on LSD effects at the 5-HT2a receptor” value ([1]; ketanserin 40 mg given prior to 200 μg LSD) was “blocks LSD side effects”.

In the case of CCN(CC)C(=O)[C@@H]1C=C2c3cccc4[nH]cc(c34)C[C@H]2N(C)C1 [LSD, D-lysergic acid diethylamide base], the “iso-LSD content (% of initial LSD content)” value ([2]; solution in 96% ethanol, batch BZ16, 4° C., 4 months) was 0.1%, the “iso-LSD content (% of initial LSD content)” value ([2]; solution in 96% ethanol, batch BZ16, 4° C., 6 months) was 0.1% and the “iso-LSD content (% of initial LSD content)” value ([2]; solution in 96% ethanol, batch BZ16, 4° C., 12 months) was 1.3%. For the same compound, the “iso-LSD content (% of initial LSD content)” value ([2]; solution in 96% ethanol, batch BZ16, 4° C., 18 months) was 3.2%, the “iso-LSD content (% of initial LSD content)” value ([2]; solution in 96% ethanol, batch BZ16, 4° C., 24 months) was 3.6% and the other decomposition products ([2]; solution stored at 4° C.) was “No other decomposition products were present”. For the same compound, the “iso-LSD content (% of initial LSD content)” value ([2]; vials at room temperature, 2 months) was 0%, the “iso-LSD content (% of initial LSD content)” value ([2]; vials at room temperature, 4 months) was 3.1% and the “iso-LSD content (% of initial LSD content)” value ([2]; vials at room temperature, 6 months) was 3.4%. The “iso-LSD content (% of initial LSD content)” value ([2]; vials at room temperature, 12 months) was 6.7%, the “iso-LSD content (% of initial LSD content)” value ([2]; vials at room temperature, 24 months) was 9.5% and the “plasma AUC24” value [3] was 21 ng·h/mL. The “VAS any drug effect compared with placebo” value ([1]; 25 μg oral, P<0.05, 16 subjects) was “significant”, the “VAS good drug effect, dose dependence” value ([1]; 25, 50, 100, 200 μg oral) was “dose-dependent good drug effects up to the 100 μg dose” and the “anxiety on the 5D-ASC and AMRS” value ([1]; 100 and 200 μg, P<0.01 for both) was “only the 200 μg but not the 100 μg dose of LSD induced significant anxiety”. The “anxious ego-dissolution on the 5D-ASC, 200 μg versus 100 μg” value ([1]; P<0.05) was “greater”, the “ego-dissolution on the VAS, 200 μg versus 100 μg” value ([1]; P<0.05) was “significantly greater” and the “subjectively negative nadir effects, 200 μg versus 100 μg” value ([1]; P<0.05) was “greater”. The “most scales (particularly positive subjective effects) with increasing doses” value ([1]; at the 100 μg dose, no significant differences between 100 and 200 μg) was “ceiling effect was reached”, the “BDNF plasma concentration compared with placebo” value ([4]; 200 μg LSD) was “significantly increased” and the “time of peak BDNF plasma concentration” value ([4]; 200 μg LSD) was 6 h. The “plasma BDNF” value ([4]; lower doses of LSD (25, 50, 100 μg)) was “non-significant increases”, the “subjects with bad drug effects (50% or more on a 0-100% scale at any time point)” value ([5]; 0.1 mg LSD, 3 of 24 subjects (Dolder et al., 2017)) was 12.5% and the “subjects with transient bad drug effects” value ([5]; 0.1 mg LSD, 7 of 24 subjects (Holze et al., 2019)) was 29%. The “subjects with bad drug effects (50% or more on a 0-100% scale at any time point)” value ([5]; 0.2 mg LSD, 9 of 16 subjects (Dolder et al., 2017)) was 56%, the “subjects with marked anxiety” value ([5]; 0.2 mg LSD, sixteen healthy humans (Schmid et al., 2015)) was “two” and the “clinical response to 75 μg intravenous LSD versus oral 100 μg dose” value ([5]; previous studies (Carhart-Harris et al., 2016a; Liechti, 2017)) was “not significantly different”. The “AUC∞ as % of value expected from confirmed 96 μg LSD doses” value ([6]; 100 μg capsule dose) was 61%, the “AUC∞ as % of value expected from confirmed 96 μg LSD doses” value ([6]; 200 μg capsule dose) was 76% and the body temperature ([7]; 25-200 μg) was “no effect”. For the same compound, the heart rate ([7]; 100 and 200 μg) was “moderately but significantly increased”, the “total acute (0-12 hours) adverse effects score on the LC compared with placebo and all other conditions” value ([7]; 100 and 200 μg) was “increased” and the severe adverse events ([7]; all conditions) was “No severe adverse events were observed”. For the same compound, the blood pressure ([7]; doses of 50 μg or higher) was “moderately but significantly increased”, the “plasma concentrations of LSD, dose proportionality” value ([8]; 25, 50, 100, 200 μg oral) was “increased proportionally with increasing doses” and the “VAS bad drug effect, 200 μg compared with 100 μg” value ([8]; in vivo) was “higher bad drug effects”. For the same compound, the effect duration ([8]; with increasing doses) was “longer effect durations”, the “time to offset of the LSD response” value ([8]; with increasing doses) was “increased” and the “time to onset of the LSD response” value ([8]; with increasing doses) was “decreased”.

In the case of CCN(CC)C(=O)[C@H]1C=C2c3cccc4[nH]cc(c34)C[C@H]2N(C)C1 [iso-LSD], the “plasma AUC24” value [3] is given as 9.2 ng·h/mL.
